Results as given in patent publication US6340670B1, “Acetal benzylmaltosides as inhibitors of smooth muscle cell proliferation” (American Home Products Corporation, priority 1998, dated 2002).

What follows are compounds tested on Porcine Smooth Muscle Cell (assay: Effects of Compounds on Cell Proliferation Using 3H Thymidine Incorporation). Settings: @ 50 μM, control (100%) = maximally stimulated cells.
Format: cell-based
Experimental: Effects of Compounds on Cell Proliferation Using ^3H Thymidine Incorporation
Human and porcine smooth muscle cells were tested in early passage (generally passage 3-7) at sub-confluent conditions. Cultures were grown in 16 mm (24 well) multi-well culture dishes in medium 199 supplemented with 10% fetal bovine serum and 2% antibiotic/antimycotic. At sub-confluence, the cells were placed in a defined serum free medium (AIM-V; Gibco) for 24-48 h prior to initiating the experimental protocol.
Compounds were added to each well at 50 fold dilution (20 μL/well) and the plates were incubated for 24-36 h at 37° C. in 5% CO2. Compounds were initially dissolved in 50% ethanol and serially diluted into media. Compounds were routinely evaluated at concentrations from 1 to 100 μM. As a control, grade II porcine intestinal mucosal heparin (sodium salt) was routinely evaluated in all cell preparations at concentrations from 0.1 to 100 μg/mL.
At the completion of the test procedure, plates were placed on ice, washed three times with ice cold phosphate buffered saline (PBS) and incubated in ice cold 10% trichloroacetic acid (TCA) got 30 min to remove acid soluble proteins. Solution was transferred to scintillation vials containing 0.4 N HCl (500 μL/vial to neutralize NaOH) and each well was rinsed two times with water (500 μL) for a total volume of 2 mL/vial.
Data was obtained, in triplicate, for both control and experimental samples. Control (100%) data was obtained from maximally stimulated cells, as the result of growth factor or serum stimulation. Experimental data was obtained from cells maximally stimulated with growth factor or serum and treated with compound. Data are expressed as an IC50 or percent inhibition in Table I below.
For CCOCC[C@@H]1OC[C@H]2O[C@H](O[C@H]3[C@H](O)[C@@H](O)[C@H](OCc4ccc(Cl)c(NC(C)=O)c4)O[C@@H]3CO)[C@H](O)[C@@H](O)[C@@H]2O1 [Example 20, N-{2-Chloro-5-[(4′,6′-O-((1R)-3-ethoxy-propylidene)-β-D-maltosyloxy)-methyl]-phenyl}-acetamide], the “Porcine Smooth Muscle Cell Antiproliferation, percent inhibition” value was 48% @ 50.

Same assay, conditions: serum/growth factor stimulated cells, 24-36 h incubation, read-out: Porcine Smooth Muscle Cell Antiproliferation IC50
CC(NC(=O)OCC1c2ccccc2-c2ccccc21)C(=O)Nc1cc(COC2OC(CO)C(OC3OC4COC(c5ccccc5)OC4C(O)C3O)C(O)C2O)ccc1Cl [Example 75, (1-{5-[(4′,6′-O-Benzylidene-β-D-maltosyl)-oxy-methyl]-2-chloro-phenyl-carbamoyl}ethyl)-carbamic acid 9H-fluoren-9ylmethyl ester] was tested, and the IC50 was 4.69 µM.
With Nc1cc(COC2OC(COC(=O)c3ccccc3)C(OC3OC4COC(c5ccccc5)OC4C(O)C3O)C(O)C2O)ccc1Cl [Example 67, 5-(6-O-Benzoyl-4′,6′-O-benzylidene-β-D-maltosyl)-oxy-methyl-2-chloro-phenylamine] the IC50 was 1.29 µM.
CC(=O)Nc1cc(CO[C@@H]2O[C@H](COC(=O)CCc3ccccc3)[C@@H](O[C@H]3O[C@@H]4COC(c5ccccc5)O[C@H]4[C@H](O)[C@H]3O)[C@H](O)[C@H]2O)ccc1Cl (stereo partly drawn) [Example 48, N-{5-[(4′,6′-O-Benzylidene-6-O-phenyl-ethyl-carboxyl-β-D-maltosyl)-oxy-methyl]-2-chloro-phenyl}-acetamide] showed an IC50 of 0.007 µM.
Compound “Benzoic acid 6-(3-acetylamino-4-chloro-benzoyloxy)-3-(7,8-dihydroxy-2-pyridin-4-yl-hexahydro-pyrano[3,2-d][1,3]dioxin-6-yloxy)-4,5-dihydroxy-tetrahydro-pyran-2-ylmethyl ester [Example 23]” has an IC50 of 0.003 µM.
CC(=O)Nc1cc(COC2OC(COC(=O)CCCc3ccccc3)C(OC3OC4COC(c5ccccc5)OC4C(O)C3O)C(O)C2O)ccc1Cl [Example 49, N-{5-[(4′,6′-O-Benzylidene-6-O-phenyl-propyl-carboxyl-β-D-maltosyl)-oxy-methyl]-2-chloro-phenyl}-acetamide] was tested, and the IC50 was 0.104 µM.
C=CCCC(=O)Nc1cc(COC2OC(CO)C(OC3OC4COC(c5ccccc5)OC4C(O)C3O)C(O)C2O)ccc1Cl [Example 65, N-{2-Chloro-5-[(4′,6′-O-benzylidene-β-D-maltosyl)-oxy-methyl]-phenyl}-pent-4-enamide] gave an IC50 of 17.8 µM.
For O=C(Nc1cc(COC2OC(CO)C(OC3OC4COC(c5ccccc5)OC4C(O)C3O)C(O)C2O)ccc1Cl)c1cccnc1 [Example 61, (R)-N-[2-Chloro-5-[[[4-O-[4′,6′-O-(phenylmethylene)-α-D-glucopyranosyl]-β-D-glucopyranosyl]oxy]methyl]phenyl]-3-pyridinecarboxamide], the IC50 was 13.7 µM.
O=C(Nc1cc(CO[C@@H]2O[C@H](CO)[C@@H](O[C@H]3O[C@@H]4COC(c5ccccc5)O[C@H]4[C@H](O)[C@H]3O)[C@H](O)[C@H]2O)ccc1Cl)c1ccco1 (stereo partly drawn) [Example 63, Furan-2-carboxylic acid {5-[(4′,6′-O-benzylidene-β-D-maltosyl)-oxy-methyl]-2-chloro-phenyl}-amide] gave an IC50 of 7.73 µM.
For CC(=O)Nc1cc(COC2OC(CO)C(OC3OC4COC(c5ccccc5)OC4C(O)C3O)C(O)C2O)ccc1C [Example 57, N-{5-[(4′,6′-O-Benzylidene-β-D-maltosyl)-oxy-methyl]-2-methyl-phenyl}-acetamide], the IC50 was 8.9 µM.
For CC(=O)Nc1cc(COC2OC(COC(=O)c3ccccc3)C(OC3OC4COC(c5ccccc5)OC4C(O)C3O)C(O)C2O)ccc1C [Example 85, N-{5-[(6-O-Benzoyl-4′,6′-O-benzylidene-β-D-maltosyl)-oxy-methyl]-2-methyl-phenyl}-acetamide], the IC50 was 0.418 µM.
For CC(=O)Nc1cc(CO[C@@H]2O[C@H](COC(=O)c3ccccc3)[C@@H](O[C@H]3O[C@@H]4COC(c5ccccc5)O[C@H]4[C@H](O)[C@H]3O)[C@H](O)[C@H]2O)ccc1Cl (stereo partly drawn) [Example 26, N-{5-[(6-O-Benzoyl-4′,6′-O-benzylidene-β-D-maltosyl-oxy)-methyl]-2-chloro-phenyl}-acetamide], the IC50 was 0.01 to 0.03 µM.
Work on CC(=O)Nc1cc(COC2OC(COS(=O)(=O)c3ccc(C)cc3)C(OC3OC4COC(c5ccccc5)OC4C(O)C3O)C(O)C2O)ccc1C [Example 59, N-(5-{[4′,6′-O-Benzylidene-6-O-(4-toluenesulfonyl)-β-D-maltosyl]-oxy-methyl}-2-methyl-phenyl)-acetamide] yielded an IC50 of 0.49 µM.
CC(=O)Nc1cc(COC2OC(COC(=O)c3ccc(I)cc3)C(OC3OC4COC(c5ccccc5)OC4C(O)C3O)C(O)C2O)ccc1Cl [Example 45, N-{5-[(4′,6′-O-Benzylidene-6-(4-iodo-benzoyl)-oxy-β-D-maltosyl)-oxy-methyl]-2-chloro-phenyl}-acetamide] gave an IC50 of 6.44 µM.
OCC1OC(OCc2ccc(Cl)cc2)C(O)C(O)C1OC1OC2COC(c3ccccc3)OC2C(O)C1O [Example 68, (4-Chloro)-benzyl-4′,6′-O-benzylidene-β-D-maltoside] gave an IC50 of 25.3 µM.
CC(=O)Nc1cc(COC2OC(COS(=O)(=O)c3ccc(C)cc3)C(OC3OC4COC(c5ccccc5)OC4C(OC(C)=O)C3OC(C)=O)C(OC(C)=O)C2OC(C)=O)ccc1Cl [Example 7, N-(5-{[2,32′,3′-Tetra-O-acetyl-4′,6′-O-benzylidene-6-O-(4-toluenesulfonyl)-β-D-maltosyl]-oxy-methyl}-2-chloro-phenyl)-acetamide] was tested, and the IC50 was 0.088 µM.
CC(=O)Nc1cc(COC2OC(COC(=O)c3ccccc3)C(OC3OC4COC(C)OC4C(O)C3O)C(O)C2O)ccc1Cl [Example 2, (R)-N-[5-[[[6-O-Benzoyl-4-O-(4,6-O-ethylidene-α-D-glucopyranosyl)-β-D-glucopyranosyl]oxy]methyl]-2-chlorophenyl]acetamide] gave an IC50 of 0.103 µM.
In the case of CC(=O)OC1C(OC2C(COC(=O)c3cccnc3)OC(OCc3ccc(Cl)c([N+](=O)[O-])c3)C(OC(C)=O)C2OC(C)=O)OC2COC(c3ccccc3)OC2C1OC(C)=O [Example 33, (R)-(4-Chloro-3-nitrophenyl)methyl 4-[2,3-di-O-acetyl-4,6-O-(phenylmethylene)-α-D-glucopyranosyl]-β-D-glucopyranoside 2,3-diacetate 6-(3-pyridinecarboxylate)], the IC50 is reported as 0.312 µM.
Work on CC(=O)Nc1cc(COC2OC(COS(=O)(=O)c3ccc(C)cc3)C(OC3OC4COC(c5ccccc5)OC4C(O)C3O)C(O)C2O)ccc1Cl [Example 6, N-(5-{[4′,6′-O-Benzylidene-6-O-(4-toluenesulfonyl)-β-D-maltosyl]-oxy-methyl}2-chloro-phenyl)-acetamide] yielded an IC50 of 0.133 µM.
In the case of CC(=O)Nc1cc(COC2OC(COC(=O)c3ccc([N+](=O)[O-])cc3)C(OC3OC4COC(c5ccccc5)OC4C(O)C3O)C(O)C2O)ccc1Cl [Example 41, (R)-N-[2-Chloro-5-[[[6-O-(4-nitrobenzoyl)-4-O-[4,6O-(phenylmethylene)-α-D-glucopyranosyl]-β-D-glucopyranosyl]oxy]methyl]phenyl]acetamide], the IC50 is reported as 0.273 µM.
Compound O=[N+]([O-])c1cc(COC2OC(CO)C(OC3OC4COC(c5ccccc5)OC4C(O)C3O)C(O)C2O)ccc1Cl [Example 29, 4-Chloro-3-nitro-benzyl-4′,6′-O-benyzlidene-β-D-maltoside] has an IC50 of 44.1 µM.
O=C(OCC1OC(OCc2ccc(Cl)cc2)C(O)C(O)C1OC1OC2COC(c3ccccc3)OC2C(O)C1O)c1ccccc1 [Example 69, Benzoic acid 1-O-(4-chloro)-benzyl-4′,6′-O-benzylidene-6-deoxy-β-D-malto-6-yl ester] gave an IC50 of 1.53 µM.
For O=C(Nc1cc(COC2OC(COC(=O)c3cccc(I)c3)C(OC3OC4COC(c5ccccc5)OC4C(O)C3O)C(O)C2O)ccc1Cl)c1ccc(C(=O)c2ccccc2)cc1 [Example 73, 4-Benzoyl-N-{5-[(4′,6′-O-benzylidene-6-O-(3-iodo-benzoyl)-β-D-maltosyl)-oxy-methyl]-2-chloro-phenyl}-benzamide], the IC50 was 0.132 µM.
O=C(OCC1OC(OCc2ccc(Cl)c([N+](=O)[O-])c2)C(O)C(O)C1OC1OC2COC(c3ccccc3)OC2C(O)C1O)c1ccccc1 [Example 30, 4-Chloro-3-nitro-benzyl-6-O-benzoyl-4′,6′-O-benyzlidene-β-D-maltoside] was tested, and the IC50 was 0.351 µM.
For CC(=O)Nc1cc(COC2OC(COC(=O)c3ccccc3)C(OC3OC4COC(c5ccc(Cl)cc5)OC4C(O)C3O)C(O)C2O)ccc1Cl [Example 13, N-{1 5-[(6-O-Benzoyl-4′,6′-O-(4-chloro)-benzylidene-β-D-maltosyl)-oxy-methyl]-2-chloro-phenyl}-acetamide], the IC50 was 0.023 µM.
For O=C(Nc1cc(COC2OC(COC(=O)c3ccc(I)cc3)C(OC3OC4COC(c5ccccc5)OC4C(O)C3O)C(O)C2O)ccc1Cl)c1ccc(C(=O)c2ccccc2)cc1 [Example 74, 4-Benzoyl-N-{5-[(4′,6′-O-benzylidene-6-(4-iodo-benzoyl)-oxy-β-D-maltosyl)-oxy-methyl]-2-chloro-phenyl}-benzoic acid amide], the IC50 was 1.22 µM.
Compound CC(=O)Nc1cc(COC2OC(COC(=O)c3ccc(Cl)c([N+](=O)[O-])c3)C(OC3OC4COC(c5ccccc5)OC4C(O)C3OC(C)=O)C(OC(C)=O)C2OC(C)=O)ccc1Cl [Example 39, N-{5-[(2,2′,3,-Tri-O-Acetyl-6-O-(4-chloro-3-nitrobenzoyl)-4′,6′-O-(benzylidene)-β-D-maltosyl)-oxymethyl]-2-chloro-phenyl)-acetamide] has an IC50 of 2.53 µM.
